Experimental data: publication PMC10584003 (The Journal of Clinical Endocrinology and Metabolism, 2023)
Entries after “also recorded” stand apart in the source; their conditions may differ.

Legend:
[1] = tested on: GLP-1R variants E34*, W87R, H99Qfs*83, S155F, F169Sfs*13, R310W, and T353M; experiment: β-arrestin 2 recruitment; type: cell-based, human; details: HEK293 cells, BRET with GRK6, LoS variants E34*
[2] = tested on: GLP-1R, alanine at position 87; details: ref [44]; cited from earlier work
[3] = tested on: GLP-1R A316T; details: A316T variant; agonist not given; ref [49]; cited from earlier work
[4] = tested on: GLP-1R variants S79L, W87R, R310W, R421W, and A449V; experiment: Homologous competition binding, 5 LoS variants with maintained binding; parameters: species or system human; details: COS-7 cells
[5] = tested on: GLP-1R F321S and F66L; experiment: cAMP signaling, variants F66L and F321S; type: cell-based, human; details: COS-7 cells, predicted pLoF
[6] = tested on: GLP-1R P7L, R131Q, G168S, and A316T; experiment: GLP-1R signaling, variants P7L, R131Q, G168S, A316T; type: cell-based, human; details: present study, COS-7 and HEK-293 cells
[7] = tested on: 26 WT-like GLP-1R variants; experiment: β-arrestin 2 recruitment; type: cell-based, human; details: HEK293 cells, BRET with GRK6, 26 WT-like variants
[8] = tested on: GLP-1R, alanine at position 155; details: ref [46]; cited from earlier work
[9] = tested on: GLP-1R R310W; details: top of transmembrane helix 5, agonist not given, ref [45]; cited from earlier work
[10] = tested on: GLP-1R, alanine at position 87; details: ref [44]; cited from earlier work; remark: listed apart in the source
[11] = tested on: GLP-1R, alanine at position 353; details: alanine mutation at position 353; ref [46]; cited from earlier work
[12] = tested on: GLP-1R A316T; details: A316T variant; agonist not given; ref [49]; cited from earlier work; remark: listed apart in the source
[13] = tested on: GLP-1R variants E34*, H99Qfs*83, S155F, F169Sfs*13, and T353M; experiment: Homologous competition binding, 5 LoS variants without binding; parameters: species or system human; details: COS-7 cells, 125I-GLP-1(7-36)NH2, LoS variants E34*, F169Sfs*13, T353M
[14] = tested on: 26 WT-like GLP-1R variants; experiment: cAMP measurement; type: cell-based, human; details: COS-7 cells
[15] = tested on: GLP-1R R421C; details: naturally occurring variant R421C; agonist not given; ref [42]; cited from earlier work
[16] = tested on: GLP-1R, alanine at position 155; details: ref [46]; cited from earlier work; remark: listed apart in the source
[17] = tested on: GLP-1R variants S79L, R421W, and A449V; experiment: β-arrestin 2 recruitment; type: cell-based, human; details: HEK293 cells, BRET with GRK6, LoS variants S79L

In the case of glucagon-like peptide 1 [GLP-1], the “β-arrestin 2 recruitment, result in words” value [1] is given as “completely lost β-arrestin 2 recruitment”, the “GLP-1 binding, alanine at position 87, result in words” value [2] is given as “no altered GLP-1 binding” and the “β-arrestin recruitment, A316T” value [3] is given as 18 % of WT. The “GLP-1 binding, result in words” value [4] was “maintained GLP-1 binding”, the “cAMP signaling, result in words” value [5] was “normal cAMP signaling” and the “GLP-1R signaling, result in words” value [6] was “WT-like GLP-1R signaling”. For the same substance, the “β-arrestin 2 recruitment, result in words” value [7] was “WT-like β-arrestin 2 recruitment”, the “β-arrestin 2 recruitment average Emax” value ([7]; average, ± 6.6% (SEM)) was 90.2 % of WT and the “GLP-1 affinity, alanine at position 155, result in words” value [8] was “affected cAMP production and GLP-1 affinity”. The “efficacy, R310W, result in words” value [9] was “reduce efficacy”, the “cAMP signaling, alanine at position 87, result in words” value [10] was “no altered GLP-1 binding or cAMP signaling” and the “cAMP production, alanine at position 353, result in words” value [11] was “altered cAMP production”. The “signaling and binding, A316T, result in words” value [12] was “WT-like signaling and binding properties”, the “receptor binding, result in words” value [13] was “complete loss of binding; also recorded: no GLP-1 binding” and the “change in cAMP potency vs WT (WT-like criterion)” value ([14]; 26 WT-like variants, EC50 change vs WT) was less than 5 fold. For the same substance, the “cAMP Emax (WT-like criterion)” value ([14]; 26 WT-like variants, Emax of at least 50% of the WT Emax) was “at least 50 % of the WT Emax”, the “cAMP production, result in words” value ([14]; 26 variants, compared to WT) was “cAMP production similar to WT GLP-1R” and the “cAMP signaling, R421C, result in words” value [15] was “no effect on cAMP signaling”. For the same substance, the “cAMP production, alanine at position 155, result in words” value [16] was “affected cAMP production” and the “β-arrestin 2 recruitment, result in words” value [17] was “maintained β-arrestin 2 recruitment”.
